Laboratory results from PubChem BioAssay AID2060883 (Molecular Pharmacology Branch, DTP, NCI, 2025).

System: 843782-103-R-J1-PDC complex spheroid viability
Assay: Anticancer human tumor 843782-103-R-J1-PDC patient-derived lung adenocarcinoma cell line growth inhibition [RAS]
Conditions: for IC50: curve of first compound; for viability, T/C: stronger effect = lower value
Method in brief: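 Multi-cell-type spheroids: tumor cells plus HUVEC endothelial cells and mesenchymal stem cells. RAS-pathway inhibitors were combined with targeted agents, each dosed in half-log steps down from clinical Cmax, or from 10 microM when Cmax was unknown.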
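Note: viability read after seven days of compound exposure.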

## CC1(C)CCC(Nc2ncc(C(F)(F)F)c(-c3c[nH]c4c(P(C)(C)=O)c(C#N)ccc34)n2)CN1 (configuration not stated) + CCn1c(-c2cccnc2C(C)OC)c2c3cc(ccc31)N1CCOC(CC(NC(=O)C(C(C)C)N(C)C(=O)C3(F)CCN(C(=O)C#CC(C)(C)N(C)C)CC3)C(=O)N3CCCC(N3)C(=O)OCC(C)(C)C2)C1
Second compound 0.000949 µM
  IC50: 2.53 nM
Second compound 0.003 µM
  IC50: 2.29 nM
Second compound 0.00949 µM
  IC50: 3.46 nM
Second compound 0.03 µM
  IC50: 3.86 nM
Second compound 0.0949 µM
  IC50: 2.63 nM
Second compound 0.3 µM
  IC50: 1.67 nM
Second compound 0.000949 µM, first compound 0.000949 µM
  viability, T/C: 78.2%
Second compound 0.000949 µM, first compound 0.003 µM
  viability, T/C: 45.2%
Second compound 0.000949 µM, first compound 0.00949 µM
  viability, T/C: 29.4%
Second compound 0.000949 µM, first compound 0.03 µM
  viability, T/C: 26.6%
Second compound 0.000949 µM, first compound 0.0949 µM
  viability, T/C: 22.9%
Second compound 0.000949 µM, first compound 0.3 µM
  viability, T/C: 21.8%
Second compound 0.003 µM, first compound 0.000949 µM
  viability, T/C: 59.9%
Second compound 0.003 µM, first compound 0.003 µM
  viability, T/C: 46.3%
Second compound 0.003 µM, first compound 0.00949 µM
  viability, T/C: 32.3%
Second compound 0.003 µM, first compound 0.03 µM
  viability, T/C: 21%
Second compound 0.003 µM, first compound 0.0949 µM
  viability, T/C: 17.9%
Second compound 0.003 µM, first compound 0.3 µM
  viability, T/C: 19.4%
Second compound 0.00949 µM, first compound 0.000949 µM
  viability, T/C: 59.6%
Second compound 0.00949 µM, first compound 0.003 µM
  viability, T/C: 51.8%
Second compound 0.00949 µM, first compound 0.00949 µM
  viability, T/C: 34%
Second compound 0.00949 µM, first compound 0.03 µM
  viability, T/C: 20.2%
Second compound 0.00949 µM, first compound 0.0949 µM
  viability, T/C: 19.5%
Second compound 0.00949 µM, first compound 0.3 µM
  viability, T/C: 19%
Second compound 0.03 µM, first compound 0.000949 µM
  viability, T/C: 62.9%
Second compound 0.03 µM, first compound 0.003 µM
  viability, T/C: 55.1%
Second compound 0.03 µM, first compound 0.00949 µM
  viability, T/C: 33%
Second compound 0.03 µM, first compound 0.03 µM
  viability, T/C: 22.6%
Second compound 0.03 µM, first compound 0.0949 µM
  viability, T/C: 18.8%
Second compound 0.03 µM, first compound 0.3 µM
  viability, T/C: 18%
Second compound 0.0949 µM, first compound 0.000949 µM
  viability, T/C: 69.3%
Second compound 0.0949 µM, first compound 0.003 µM
  viability, T/C: 46.8%
Second compound 0.0949 µM, first compound 0.00949 µM
  viability, T/C: 31.5%
Second compound 0.0949 µM, first compound 0.03 µM
  viability, T/C: 18.5%
Second compound 0.0949 µM, first compound 0.0949 µM
  viability, T/C: 17.3%
Second compound 0.0949 µM, first compound 0.3 µM
  viability, T/C: 17.6%
Second compound 0.3 µM, first compound 0.000949 µM
  viability, T/C: 57.7%
Second compound 0.3 µM, first compound 0.003 µM
  viability, T/C: 41.8%
Second compound 0.3 µM, first compound 0.00949 µM
  viability, T/C: 24.4%
Second compound 0.3 µM, first compound 0.03 µM
  viability, T/C: 15.5%
Second compound 0.3 µM, first compound 0.0949 µM
  viability, T/C: 13.6%
Second compound 0.3 µM, first compound 0.3 µM
  viability, T/C: 14.4%
